Data as given in ChEMBL document CHEMBL3779870, “Differential metabolism of 3FDT and docetaxel in RLMs, rats, and HLMs” (Eur J Med Chem, 2016).

Assays:
Type in all cases: ADME, organism-based
Conditions in all cases: in vivo
Plasma = test: Drug level in Sprague-Dawley rat plasma treated with 3FDT at 40 mg/kg, iv administered as single dose after 4 to 24 hrs by HPLC-TIC chromatography
[1] = Drug level in Sprague-Dawley rat urine treated with 3FDT at 40 mg/kg, iv administered as single dose after 24 hrs by HPLC-TIC chromatography
[2] = Drug level in Sprague-Dawley rat feces treated with 3FDT at 40 mg/kg, iv administered as single dose after 24 hrs by HPLC-TIC chromatography

Measured: Drug metabolism

CC(=O)O[C@@]12CO[C@@H]1C[C@@H](O)[C@@]1(C)C(=O)[C@H](O)C3=C(C)[C@@H](OC(=O)[C@H](O)[C@@H](NC(=O)OC(C)(C)C(F)(F)F)c4ccccc4)C[C@@](O)([C@@H](OC(=O)c4ccccc4)C12)C3(C)C (stereo partly drawn)
metabolite_detected: Plasma | [1] | [2]
